Assay results taken from US8415482B2, “Proline derivatives” (National Health Research Institutes, priority 2009, dated 2013).

Each compound was assayed on HCV replication (assay: Inhibiting HCV replication, Ava5-EG(Δ4AB)SEAP reporter-based cell line, SEAP activity). Details: Hepatitis C virus, 72 h, Ava5-EG(Δ4AB)SEAP cells; 48 hours + additional 24 hours treatment; SEAP activity in culture medium; read-out: EC50 values (i.e., the concentration of a test compound at which 50% HCV replication is inhibited).
Description: The inhibitory activity of compounds of this invention against HCV replication was assessed using Ava5-EG(Δ4AB)SEAP, a reporter-based cell line, according to the methods described in Lee et al., Anal. Biochem., 316:162-70 (2003) and Lee et al., J. Virol Methods, 116:27-33 (2004). Briefly, Ava5-EG(Δ4AB)SEAP cells were cultured in a medium containing 500 μg/mL G418 (geneticin) and 10 μg/mL blasticidin in a 5% CO2 incubator. G418 and blasticidin were purchased from Invitrogen (Carlsbad, Calif.). The cells were seeded in a 96-well plate (5×10^3 cells/100 μL-well) and incubated at 37° C. for 24 hours. They were then treated with a solution of a test compound in DMSO at various concentrations. After 48 hours, the culture medium in each well was replaced with a fresh medium containing the test compound at the same concentrations to remove secreted alkaline phosphatase (SEAP) accumulated in the culture medium, if any. The cells were cultured for additional 24 hours. The culture medium was then collected and tested for SEAP activity using a Phospha-Light assay kit (Tropix, Foster, Calif., USA).

SMILES	EC50 [nM]
CC(C)C(=O)N[C@H](C(=O)N1CCC[C@H]1c1ncc(-c2ccc(-c3ccc(-c4cnc([C@@H]5CCCN5C(=O)[C@H](NC(=O)C(C)C)c5ccccc5)s4)cc3)cc2)s1)c1ccccc1 [Compound 61a]	≤ 500
O=C(N[C@@H](C(=O)N1C[C@@H](F)C[C@H]1c1ncc(-c2ccc(-c3ccc(-c4cnc([C@@H]5C[C@H](F)CN5C(=O)[C@H](NC(=O)N5CCOCC5)c5ccccc5)s4)cc3)cc2)s1)c1ccccc1)N1CCOCC1 [Compound 7c-B]	≤ 500
O=C(N[C@@H](C(=O)N1C[C@@H](F)C[C@H]1c1ncc(-c2ccc(-c3ccc(-c4cnc([C@@H]5C[C@H](F)CN5C(=O)[C@H](NC(=O)C5CC5)c5ccccc5)s4)cc3)cc2)s1)c1ccccc1)C1CC1 [Compound 7c-A]	≤ 500
CC(C)(C)OC(=O)N[C@@H](C(=O)N1CCC[C@H]1c1nc(-c2ccc(-c3ccc(-c4noc([C@@H]5CCCN5C(=O)[C@H](NC(=O)OC(C)(C)C)c5ccccc5)n4)cc3)cc2)c[nH]1)c1ccccc1 [Compound 25a]	≤ 500
O=C(N[C@@H](C(=O)N1C[C@H](F)C[C@H]1c1ncc(-c2ccc(-c3ccc(-c4cnc([C@@H]5C[C@@H](F)CN5C(=O)[C@H](NC(=O)N5CCOCC5)c5ccccc5)s4)cc3)cc2)s1)c1ccccc1)N1CCOCC1 [Compound 7b-B]	≤ 500
O=C(N[C@@H](C(=O)N1CCC[C@H]1c1ncc(-c2ccc(-c3ccc(-c4cnc([C@@H]5CCCN5C(=O)[C@H](NC(=O)C5CC5)c5ccccc5)s4)cc3)cc2)s1)c1ccccc1)C1CC1 [Compound 7a-A, N,N′-(1R,1′R)-2,2′-((2S,2′S)-2,2′-(5,5′-(biphenyl-4,4′-diyl)bis(thiazole-5,2-diyl))bis(pyrrolidine-2,1-diyl))bis(2-oxo-1-phenylethane-2,1-diyl)dicyclopropanecarboxamide]	≤ 500
O=C(N[C@@H](C(=O)N1CCC[C@H]1c1ncc(-c2ccc(-c3ccc(-c4cnc([C@@H]5CCCN5C(=O)[C@H](NC(=O)C5CC5)c5ccccc5)s4)cc3)cc2)[nH]1)c1ccccc1)C1CC1 [Compound 42a, N—((R)-2-((S)-2-(5-(4′-(2-((S)-1-((R)-2-(cyclopropanecarboxamido)-2-phenylacetyl)pyrrolidin-2-yl)-1H-imidazol-4-yl)biphenyl-4-yl)thiazol-2-yl)pyrrolidin-1-yl)-2-oxo-1-phenyl-ethyl)cyclopropanecarboxamide]	≤ 500
O=C(Cc1ccccc1)N[C@@H](C(=O)N1CCC[C@H]1c1ncc(-c2ccc(-c3ccc(-c4cnc([C@@H]5CCCN5C(=O)[C@H](NC(=O)Cc5ccccc5)c5ccccc5)s4)cc3)cc2)s1)c1ccccc1 [Compound 74a]	≤ 500
O=C(N[C@@H](C(=O)N1CCC[C@H]1c1ncc(-c2ccc(-c3ccc(-c4cnc([C@@H]5CCCN5C(=O)[C@H](NC(=O)N5CCOCC5)c5ccccc5)s4)cc3)cc2)s1)c1ccccc1)N1CCOCC1 [Compound 7a-B]	≤ 500
O=C(N[C@@H](C(=O)N1CCC[C@H]1c1nc(-c2ccc(-c3ccc(-c4noc([C@@H]5CCCN5C(=O)[C@H](NC(=O)C5CC5)c5ccccc5)n4)cc3)cc2)c[nH]1)c1ccccc1)C1CC1 [Compound 26a]	≤ 500
O=C(N[C@@H](C(=O)N1CCC[C@H]1c1ncc(-c2ccc(-c3ccc(-c4cnc([C@@H]5CCCN5C(=O)[C@H](NC(=O)C5CCCCC5)c5ccccc5)s4)cc3)cc2)s1)c1ccccc1)C1CCCCC1 [Compound 70a]	≤ 500
CC(C)(C)OC(=O)N[C@@H](C(=O)N1CCC[C@H]1c1ncc(-c2ccc(-c3ccc(-c4cnc([C@@H]5CCCN5C(=O)[C@H](NC(=O)OC(C)(C)C)c5ccccc5)s4)cc3)cc2)[nH]1)c1ccccc1 [Compound 41a]	≤ 500
O=C(N[C@@H](C(=O)N1CCC[C@H]1c1nc(-c2ccc(-c3ccc(-c4cnc([C@@H]5CCCN5C(=O)[C@H](NC(=O)C5CC5)c5ccccc5)s4)cc3)cc2)no1)c1ccccc1)C1CC1 [Compound 34a]	≤ 500
CC(C)(C)OC(=O)N[C@@H](C(=O)N1CCC[C@H]1c1nc(-c2ccc(-c3ccc(-c4cnc([C@@H]5CCCN5C(=O)[C@H](NC(=O)OC(C)(C)C)c5ccccc5)s4)cc3)cc2)no1)c1ccccc1 [Compound 33a]	≤ 500
O=C(N[C@@H](C(=O)N1C[C@H](F)C[C@H]1c1ncc(-c2ccc(-c3ccc(-c4cnc([C@@H]5C[C@@H](F)CN5C(=O)[C@H](NC(=O)C5CC5)c5ccccc5)s4)cc3)cc2)s1)c1ccccc1)C1CC1 [Compound 7b-A]	≤ 500
CCCCCC(=O)N[C@@H](C(=O)N1CCC[C@H]1c1ncc(-c2ccc(-c3ccc(-c4cnc([C@@H]5CCCN5C(=O)[C@H](NC(=O)CCCCC)c5ccccc5)s4)cc3)cc2)s1)c1ccccc1 [Compound 58a]	≤ 500
CC(C)(C)OC(=O)N[C@@H](C(=O)N1CCC[C@H]1c1nc(-c2ccc(-c3ccc(-c4cnc([C@@H]5CCCN5C(=O)[C@H](NC(=O)OC(C)(C)C)c5ccccc5)s4)cc3)cc2)cs1)c1ccccc1 [Compound 45a]	≤ 500
CC(C)(C)OC(=O)N[C@@H](C(=O)N1CCC[C@H]1c1ncc(-c2ccc(-c3ccc(-c4csc([C@@H]5CCCN5C(=O)[C@H](NC(=O)OC(C)(C)C)c5ccccc5)n4)cc3)cc2)[nH]1)c1ccccc1 [Compound 37a]	≤ 500
O=C(N[C@H](C(=O)N1CCC[C@H]1c1ncc(-c2ccc(-c3ccc(-c4cnc([C@@H]5CCCN5C(=O)[C@H](NC(=O)C5CCC5)c5ccccc5)s4)cc3)cc2)s1)c1ccccc1)C1CCC1 [Compound 67a]	≤ 500
CC(C)(C)OC(=O)N[C@@H](C(=O)N1CCC[C@H]1c1ncc(-c2ccc(-c3ccc(-c4cnc([C@@H]5CCCN5C(=O)[C@H](NC(=O)OC(C)(C)C)c5ccccc5)s4)cc3)cc2)s1)c1ccccc1 [Compound 6a, di-tert-butyl (1R,1′R)-2,2′-((2S,2′S)-2,2′-(5,5′-(biphenyl-4,4′-diyl)bis(thiazole-5,2-diyl))bis(pyrro-lidine-2,1-diyl))bis(2-oxo-1-phenylethane-2,1-diyl)dicarbamate]	≤ 500
O=C(N[C@@H](C(=O)N1CCC[C@H]1c1ncc(-c2ccc(-c3ccc(-c4cnc([C@@H]5CCCN5C(=O)[C@H](NC(=O)c5ccco5)c5ccccc5)s4)cc3)cc2)s1)c1ccccc1)c1ccco1 [Compound 76a]	≤ 500
CC(=O)N[C@H](C(=O)N1CCC[C@H]1c1ncc(-c2ccc(-c3ccc(-c4cnc([C@@H]5CCCN5C(=O)[C@H](NC(C)=O)c5ccccc5)s4)cc3)cc2)s1)c1ccccc1 [Compound 51a]	≤ 500
CC(C)(C)OC(=O)N[C@@H](C(=O)N1CCC[C@H]1c1nc(-c2ccc(-c3ccc(-c4csc([C@@H]5CCCN5C(=O)[C@H](NC(=O)OC(C)(C)C)c5ccccc5)n4)cc3)cc2)no1)c1ccccc1 [Compound 29a]	≤ 500
O=C(N[C@@H](C(=O)N1CCC[C@H]1c1ncc(-c2ccc(-c3ccc(-c4csc([C@@H]5CCCN5C(=O)[C@H](NC(=O)C5CC5)c5ccccc5)n4)cc3)cc2)[nH]1)c1ccccc1)C1CC1 [Compound 38a]	≤ 500
O=C(N[C@@H](C(=O)N1CCC[C@H]1c1nc(-c2ccc(-c3ccc(-c4cnc([C@@H]5CCCN5C(=O)[C@H](NC(=O)C5CC5)c5ccccc5)s4)cc3)cc2)cs1)c1ccccc1)C1CC1 [Compound 46a]	≤ 500
O=C(N[C@@H](C(=O)N1CCC[C@H]1c1nc(-c2ccc(-c3ccc(-c4csc([C@@H]5CCCN5C(=O)[C@H](NC(=O)C5CC5)c5ccccc5)n4)cc3)cc2)no1)c1ccccc1)C1CC1 [Compound 30a]	≤ 500
O=C(N[C@@H](C(=O)N1CCC[C@H]1c1ncc(-c2ccc(-c3ccc(-c4cnc([C@@H]5CCCN5C(=O)[C@H](NC(=O)c5ccncc5)c5ccccc5)s4)cc3)cc2)s1)c1ccccc1)c1ccncc1 [Compound 84a]	≤ 500
